Source: article PMC10310857 (Nature Communications, 2023)
Values joined by “and” are separate entries in the source; they are usually repeats but may differ in a detail not shown here. Equal values may be shown once. “Also recorded” adds a separate entry of the source.

Key:
Pst_13661 = Pst_13661 (Puccinia striiformis f. sp. tritici, UniProt A0A0L0V0Y3, T32S); format: biochemical
VdPDA1 [1] = target: T1, VdPDA1 (Verticillium dahliae, UniProt G2X9U7); format: biochemical
V. dahliae = settings: in vivo
GhMPK6 = test system: GhMPK6; set-up: species or system Gossypium hirsutum cv. Lvmian; settings: in vivo
GhRbohD = test system: GhRbohD; set-up: species or system Gossypium hirsutum cv. Lvmian; settings: in vivo
F. graminearum = test system: F. graminearum; set-up: species or system F. graminearum strain Fg-1 on soybean; settings: in vivo
F. oxysporum = test system: F. oxysporum; set-up: species or system F. oxysporum strain Fo-2 on soybean; settings: in vivo
R. solani = test system: R. solani; set-up: species or system R. solani strain RS-1 on soybean; settings: in vivo
[2] = test system: P. striiformis f. sp. tritici (strain CYR32); set-up: species or system P. striiformis f. sp. tritici on wheat; settings: in vivo
V. dahliae strain V991 = format: cell-based, Verticillium dahliae
[3] = test system: F. graminearum strain Fg-1; format: cell-based
F. oxysporum strain Fo-2 = format: cell-based
R. solani strain RS-1 = format: cell-based
T. harzianum T27 = format: cell-based, Trichoderma harzianum
BmCDA7 = BmCDA7 (Bombyx mori, UniProt H9JW44)
Description: Effect o f BHA o n the activity of BmCDA7 from the insect Bombyx
mori. Bars in all graphs represent mean values, whiskers represent mean ± SEM, and black

VdPDA1 [4] = target: T1, VdPDA1; experiment: biochemical
Protocol: The enzymatic activity of recombinantly expressed proteins was assayed using a fluorogenic labeling method[29]. The reaction mixture consisted of 100 μL of 100 nM testing enzyme and 0.5 mM (GlcNAc)3 in a 50 mM Hepes (pH 7.5) buffer. After incubation for 10 min at 30 °C, free amine production was measured using fluorescamine labeling and quantified with a glucosamine standard. All measurements were carried out in triplicate.
The compounds were screened to identify the small molecules inhibiting VdPDA1 and Pst_13661 using a liquid-handling robot. The compounds were prepared in a 96-well plate containing one compound per well at 10 mM each in 100% DMSO (except for BHA, which was dissolved in ddH2O). The plates were first diluted to 5 mM. The compounds were screened at 100 μM in 2% DMSO in a final reaction volume of 100 μL, containing 100 nM enzyme and 0.5 mM (GlcNAc)3 in 50 mM Hepes (pH 7.5) buffer. Negative enzyme-free controls and positive controls with and without DMSO were prepared. The plates were incubated at 30 °C for 10 min. All measurements were carried out in triplicate.
For the determination of the inhibition constants Ki, three substrate (GlcNAc)3 concentrations (0.5, 0.2, and 0.1 mM) and varied inhibitor concentrations were used. The Ki values were determined using Dixon plots[56]. In Dixon plots, the value of lines intersection that converges above the x-axis is denoted as Ki. […]

BmCDA7, sequence (H9JW44 16-364): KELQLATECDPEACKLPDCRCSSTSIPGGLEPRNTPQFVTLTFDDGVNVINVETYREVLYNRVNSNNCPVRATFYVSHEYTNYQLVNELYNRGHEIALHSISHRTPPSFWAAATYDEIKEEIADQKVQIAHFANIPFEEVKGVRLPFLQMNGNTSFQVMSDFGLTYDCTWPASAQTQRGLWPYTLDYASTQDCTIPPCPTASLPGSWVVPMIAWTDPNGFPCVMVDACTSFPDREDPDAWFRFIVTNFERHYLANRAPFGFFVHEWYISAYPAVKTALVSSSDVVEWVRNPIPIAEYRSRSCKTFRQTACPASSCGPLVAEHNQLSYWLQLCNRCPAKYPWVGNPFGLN

[Zn+2] [Zn2+]
Fig. S1c enzyme activity, Exp1 (Pst_13661): 97.91
Fig. S1c enzyme activity, Exp2 (Pst_13661): 92.55
Fig. S1c enzyme activity, Exp3 (Pst_13661): 105.61
Fig. S1c enzyme activity, Mean (Pst_13661): 98.69
Fig. S1d enzyme activity, Exp1 (VdPDA1 [1]): 76.18
Fig. S1d enzyme activity, Exp2 (VdPDA1 [1]): 78.11
Fig. S1d enzyme activity, Exp3 (VdPDA1 [1]): 78.27
Fig. S1d enzyme activity, Mean (VdPDA1 [1]): 77.52

O=C(O)c1cccc(C(=O)O)n1 [DPA]
Fig. S1c enzyme activity, Exp1 (Pst_13661): 4.96
Fig. S1c enzyme activity, Exp2 (Pst_13661): 8.16
Fig. S1c enzyme activity, Exp3 (Pst_13661): 14.56
Fig. S1c enzyme activity, Mean (Pst_13661): 9.23
Fig. S1d enzyme activity, Exp1 (VdPDA1 [1]): 0.31
Fig. S1d enzyme activity, Exp2 (VdPDA1 [1]): -0.24
Fig. S1d enzyme activity, Exp3 (VdPDA1 [1]): -0.41
Fig. S1d enzyme activity, Mean (VdPDA1 [1]): -0.11

[Ni+2] [Ni2+]
Fig. S1c enzyme activity, Exp1 (Pst_13661): 49.78
Fig. S1c enzyme activity, Exp2 (Pst_13661): 47.40
Fig. S1c enzyme activity, Exp3 (Pst_13661): 46.47
Fig. S1c enzyme activity, Mean (Pst_13661): 47.88
Fig. S1d enzyme activity, Exp1 (VdPDA1 [1]): 36.44
Fig. S1d enzyme activity, Exp2 (VdPDA1 [1]): 38.96
Fig. S1d enzyme activity, Exp3 (VdPDA1 [1]): 38.03
Fig. S1d enzyme activity, Mean (VdPDA1 [1]): 37.81

O=C(NO)c1ccccc1 [Compound 1, benzohydroxamic acid]
Fungal biomass on cotton plants (V. dahliae): significantly reduced
Fungal biomass on cotton plants (Fig. 3c) Mean (V. dahliae): 0.5294 and 0.2725
Wilt symptoms of cotton plants (V. dahliae): did not exhibit wilt symptoms
GhMPK6 expression in cotton roots (GhMPK6): upregulated
GhRbohD expression in cotton roots (GhRbohD): upregulated
Fungal biomass of soybean hypocotyls (F. graminearum): significantly reduced fungal biomass
Lesions on soybean hypocotyls (F. graminearum): fewer lesions
Fungal biomass of soybean hypocotyls (F. oxysporum): significantly reduced fungal biomass
Fungal biomass of soybean hypocotyls (Fig. 5h) Mean (F. oxysporum): 0.6738 and 0.6606 and 0.4822
Lesions on soybean hypocotyls (F. oxysporum): fewer lesions
Fungal biomass of soybean hypocotyls (R. solani): significantly reduced fungal biomass
Lesions on soybean hypocotyls (R. solani): fewer lesions
Disease indices after P. striiformis f. sp. tritici infection of wheat plants [2]: greatly declined
Colony morphology and hyphae growth of V. dahliae (V. dahliae strain V991): not affected
Fungal growth (Fig. S3b), Mean (V. dahliae strain V991): 3.65 and 3.60 and 3.58
Fungal growth (Fig. S3b), Mean [3]: 4.15 and 4.13 and 4.08
Growth and morphology of F. graminearum [3]: normal morphology and developmental status; also recorded: does not affect the growth
Fungal growth (Fig. S3b), Mean (F. oxysporum strain Fo-2): 2.98 and 2.90 and 2.95
Growth and morphology of F. oxysporum (F. oxysporum strain Fo-2): normal morphology and developmental status; also recorded: does not affect the growth
Fungal growth (Fig. S3b), Mean (R. solani strain RS-1): 3.03 and 3.13
Growth and morphology of R. solani (R. solani strain RS-1): normal morphology and developmental status; also recorded: does not affect the growth
Fungal growth (Fig. S3b), Mean (T. harzianum T27): 3.65 and 3.63
Growth of Trichoderma harzianum (T. harzianum T27): does not affect the growth
Activity of BmCDA7 (Fig. S4), Mean (BmCDA7): 101.71 and 105.43
Inhibition of insect chitin deacetylases (BmCDA7): could not inhibit
Ki (VdPDA1 [4]): 8.31 µM
